Test results published in patent publication US12458688B2, “Epitopes” (Scancell Limited, priority 2018, dated 2025).
Where no end group is shown, it is not given here. [ ]: non-standard residue; d: D form. hCit = NC(=O)NCCCC[C@H](N)C(=O)O

Assays:
C57BI/6 mice = assay: Ex vivo IFNγ ELISpot after peptide immunisation, C57Bl/6 mice; assay type: in vivo, mouse
Protocol: (§1) C57BL/6 mice (Charles River, UK), HLA-DR4 mice (Model #4149, Taconic, USA), HLA-A2/DR1 (HHDII/DR1, Pasteur Institute), HLA-A2.1+/+HLA-DP4+/+hCD4+/+ (HLA-HHDII/DP4) transgenic mice (EM: 02221, European Mouse Mutant Archive) described in patent WO2013/017545 A1 (EMMA repository, France) were used, aged between 8 and 12 weeks. Peptides were dissolved in PBS to 1 mg/ml and then emulsified (a series of dilutions) with CpG ODN 1826 and MPLA 6 μg/mouse of each (Invivogen, UK). Peptides (25 μg/mouse) were injected subcutaneously at the base of the tail. Mice were immunised at days 1, 7 and 14 for peptide immunisation. Spleens were removed for analysis at day 21 unless stated otherwise.
(§2) ELISpot assays were performed using murine IFNγ, IL-17 and IL-10 capture and detection reagents according to the manufacturer's instructions (Mabtech, Sweden). In brief, anti-IFNγ, IL-17 and IL-10 specific antibodies were coated onto wells of 96-well Immobilin-P plate. […] After incubation, captured IFNγ, IL-10 and IL-17 were detected by biotinylated anti-IFNγ, IL-10 and IL-17 antibodies and developed with a streptavidin alkaline phosphatase and chromogenic substrate. […] Spots were analysed and counted using an automated plate reader (Cellular Technologies Ltd).
Significant IFNγ responses were detected to peptide vimentin 116-135 Hcit. […]

[1] = tested on: splenocytes from immunised mice; assay: Ex vivo IL-17 ELISpot after peptide immunisation; settings: mouse, in vivo
Protocol: as §1, §2

[2] = tested on: IFNγ-inducible B16 DR4 tumour; assay: Tumour therapy, IFNγ-inducible B16 DR4 tumour in HLA-DR4 mice; assay type: in vivo, mouse; settings: peptide with CpG/MPLA
Description: To mimic the naturally occurring tumour, we engineered B16F1 cells to express HLA-DR4 under control of mouse IFNγ-inducible promoter. […] HLA-DR4 mice were then implanted with this IFNγ-inducible B16 DR4 tumour followed by immunisation with vimentin 116-135Hcit peptide (FIG. 19e).

[3] = tested on: B16F1 HHDII cells that cannot express DR1; assay: Tumour therapy, B16F1 HHDII lacking DR1 in HHDII/DR1 mice; assay type: in vivo, mouse; settings: tumour without DR1
Description: (§3) This is also true in the ALDOA immunised mice.

[4] = tested on: tumour cells that were not able to express HLA-DR4; assay: Tumour therapy, B16F1 lacking DR4 in HLA-DR4 mice; assay type: in vivo, mouse; settings: tumour without HLA-DR4
Description: as §3

[5] = tested on: B16HHDII/iDP4 tumour cells; assay: Tumour therapy, B16HHDII/iDP4 tumour in HHDII/DP4 mice; assay type: in vivo, mouse; settings: peptide with CpG/MPLA
Protocol: For tumour challenge experiments, mice were challenged with B16F1 cells s.c. on the right flank 3 days before primary immunisation (unless stated otherwise) and subsequently immunised as above. Tumour implants were carried out at dose of 2.5×10^4 cells/mouse for B16F1, 2.5×10^4 cells/mouse for B16F1 DR4, 4×10^5 cells/mouse for B16F1 HHDII/DP4, 5×10^5 cells/mouse for B16 HHDII/DR1, 1×10^5 cells/mouse for B16F1 HHDII/inducibleDP4, 5×10^4 cells/mouse for B16F1 inducible DR4. For studies involving depletion antibodies, 250 μg anti-mouse Ly6C antibody (clone Monts, BioXcell) was administered i.p. on days 8, 10, 12, 15, 17 and 19. 400 μg anti-mouse Ly6G antibody (clone 1A8, Biolegend) was administered i.p. on day 8 followed by 250 μg on days 11, 15 and 18. Anti-human CD4 antibody (clone OKT4, BioXcell) or anti-mouse CD8 antibody (clone 2.43, BioXcell) were administered at 500 μg dose on day 4 followed by 300 μg dose on days 8 and 11. Tumour growth was monitored twice weekly and mice were humanely euthanised once tumour reached ≥15 mm in diameter.
To provide further evidence for the role of CD4 T cell responses in tumour therapy HHDII/DP4 mice were implanted with B16HHDII/iDP4 tumour cells on day 1 and then immunised with peptides and CpG/MPLA on days 4, 8 and 11. Concurrent with peptide immunisation mice were also treated with CD4 or CD8 depleting antibody and tumour growth monitored. […] To show whether cyanate/isocyanic acid can cross cell membranes B16F1 melanoma cell line was cultured in vitro in the presence or absence of potassium cyanate which is in dynamic equilibrium with isocyanic acid. As a positive control lysates were also produced from in vitro cultured B16F1 cells and then treated with or without KCNO.

| Substance | IFNγ ELISpot response (C57BI/6 mice) | IL-17 ELISpot response [1] | survival [2] [%] | survival vs control [3] | survival rate [4] [%] | tumour growth / survival vs control [5] |
| --- | --- | --- | --- | --- | --- | --- |
| NYID-Hcit-VRFLEQQN-Hcit-ILLAEL (NYID[hCit]VRFLEQQN[hCit]ILLAEL) [Vimentin 116-135 Hcit] | no IFNγ responses were observed | no production | 40 | no survival advantage | 20 | – |
| LREYQELMNV-hcit-LALDIEI (LREYQELMNV[hCit]LALDIEI) [Cyk8 371-388 Hcit] | – | – | – | – | – | Significant prevention of tumour growth |
